Assay results reported in patent publication US9006487B2, “Amine-containing lipids and uses thereof” (Massachusetts Institute of Technology, priority 2005, dated 2015).
Values joined by “and” are separate entries in the source; they are usually repeats but may differ in a detail not shown here. Identical values can stand only once.

System: cos-7 cells
Assay: DNA transfection: luciferase expression relative to Lipofectamine 2000
Type: cell-based
Conditions: 300 ng Luciferase DNA per well, luciferase assay after 48 hours
Description: 14,000 cos-7 cells (ATCC, Manassas, Va.) were seeded into each well of a solid white or clear 96 well plate (Corning-Costar, Kennebunk, Me.) and allowed to attached overnight in growth medium, composed of: 500 ml phenol red minus DMEM, 50 ml heat inactivated FBS, 5 ml penicillin/streptomycin (Invitrogen, Carlsbad, Calif.).
A small liquot of lipid was tranferred to an Eppendorf tube. Based on the mass of the lipid in the tube, sterile 25 mM sodium acetate buffer was added to each tube to yield a concentration of 60 mg/ml. The resulting mixture was vortexed for approximately 20 minutes until the lipid was fully dissolved. DNA was prepared based on 300 ng DNA per well of a 96-well plate. 291 μg of Lc DNA was dissolved in 9210 μl of 25 mM sodium acetate buffer. Aliquots of 30 μl of DNA solution were added to each well expect for the last column which was reserved for the Lipo2000 standard. For the last column of the plate, 61 μg of DNA was added to 1940 μl Optimem. 150 μl of media/Optimem was added to each well of plates. 50 μl of lipid solution was aliquoted into wells of robot plate. The following amounts were aliquoted to obtain the correct ratios of DNA to lipid:
In quadruplicate, 30 μl of lipid was aliquoted onto DNA in four rows for each ratio. For the Lipo2000 control (2.5 w/w ratio to DNA), 152.5 μg of Lipo sample was aliquoted into 1847.5 μl of Optimem. 30 μl of this solution was aliquoted onto DNA in the Optimem in the last columns of each plate. The plates were incubated for 15-20 minutes, and then 36.5 μl of lipid+DNA complexes was transferred into 150 μl of media/Optimem, then add to cells. The media was aspirated off the cells, and 105 μl of the lipid/DNA/media/Optimem solution was added to the cells. The luciferase assay was performed after 48 hours.
Luminescence was analyzed using bright-glo assay kits (Promega). Briefly, 100 μl of bright-glo solution was added to each well of the microtiter plate containing media and cells. Luminescence was measured using a Mithras Luminometer (Berthold, Oak Ridge, Tenn.). In some cases, a neutral density filter (Chroma, Brattleboro, Vt.) was used to prevent saturation of the luminometer. A standard curve for Luciferase was generated by titration of Luciferase enzyme (Promega) into growth media in white microtiter plates. Luciferase in ng per well are calculated for each of the lipids at 2.5 w/w, 5 w/w, 10 w/w, 15 w/w, 20 w/w, and 25 w/w lipid to DNA based on the standard curve.
The table below summarizes the data as a % of the luciferase activity obtained from the use of Lipofectamine 2000. The table indicates the best lipids for transfection.

`CCCCCCCCCCOC(=O)CCN(CC)CCCN(CC)CCC(=O)OCCCCCCCCCC` [LB64] was tested, and the “Luciferase expression as a percentage of that achieved using Lipofectamine 2000” value (from here on “Luciferase expression as a percentage”) (lipid/DNA 2.5 w/w) was 0.1%, the “Luciferase expression as a percentage” value (lipid/DNA 5 w/w) was 0.1% and the “Luciferase expression as a percentage” value (lipid/DNA 10 w/w) was 0.2% and 0.1%. The “Luciferase expression as a percentage” value (lipid/DNA 15 w/w) was 0.1%, the “Luciferase expression as a percentage” value (lipid/DNA 20 w/w) was 0.1% and the “Luciferase expression as a percentage” value (lipid/DNA 25 w/w) was 0.2% and 0.1%.

`CCCCCCCCCCOC(=O)CCN1CCCN(CCC(=O)OCCCCCCCCCC)CC1` [LB70] was tested, and the “Luciferase expression as a percentage” value (lipid/DNA 2.5 w/w) was 0.1%, the “Luciferase expression as a percentage” value (lipid/DNA 5 w/w) was 0.1% and the “Luciferase expression as a percentage” value (lipid/DNA 10 w/w) was 0.1%. For the same molecule, the “Luciferase expression as a percentage” value (lipid/DNA 15 w/w) was 0.1%, the “Luciferase expression as a percentage” value (lipid/DNA 20 w/w) was 0.1% and the “Luciferase expression as a percentage” value (lipid/DNA 25 w/w) was 0.1%.

`CCCCCCCCCCOC(=O)CCN(CCC(=O)OCCCCCCCCCC)CCN(CC)CC` [LB75] was tested, and the “Luciferase expression as a percentage” value (lipid/DNA 2.5 w/w) was 0.1%, the “Luciferase expression as a percentage” value (lipid/DNA 5 w/w) was 0.1% and the “Luciferase expression as a percentage” value (lipid/DNA 10 w/w) was 0.1%. The “Luciferase expression as a percentage” value (lipid/DNA 15 w/w) was 0.1%, the “Luciferase expression as a percentage” value (lipid/DNA 20 w/w) was 0.1% and the “Luciferase expression as a percentage” value (lipid/DNA 25 w/w) was 0.1%.

`CCCCCCCCCCOC(=O)CCN(CCC(=O)OCCCCCCCCCC)CCN1CCCC1` [LB76] was tested, and the “Luciferase expression as a percentage” value (lipid/DNA 2.5 w/w) was 0.1%, the “Luciferase expression as a percentage” value (lipid/DNA 5 w/w) was 0.1% and the “Luciferase expression as a percentage” value (lipid/DNA 10 w/w) was 0.1%. The “Luciferase expression as a percentage” value (lipid/DNA 15 w/w) was 0.1%, the “Luciferase expression as a percentage” value (lipid/DNA 20 w/w) was 0.1% and the “Luciferase expression as a percentage” value (lipid/DNA 25 w/w) was 0.1%.

With `CCCCCCCCCCOC(=O)CCN(CCC(=O)OCCCCCCCCCC)CCC1CCCN1C` (centres unmarked) [LB77] the “Luciferase expression as a percentage” value (lipid/DNA 2.5 w/w) was 0.1%, the “Luciferase expression as a percentage” value (lipid/DNA 5 w/w) was 0.1% and the “Luciferase expression as a percentage” value (lipid/DNA 10 w/w) was 0.1%. The “Luciferase expression as a percentage” value (lipid/DNA 15 w/w) was 0.2%, the “Luciferase expression as a percentage” value (lipid/DNA 20 w/w) was 0.1% and the “Luciferase expression as a percentage” value (lipid/DNA 25 w/w) was 0.3%.

With `CCCCCCCCCCOC(=O)CCN(CCC(=O)OCCCCCCCCCC)C(C)CN(C)C` (centres unmarked) [LB79] the “Luciferase expression as a percentage” value (lipid/DNA 2.5 w/w) was 0.1%, the “Luciferase expression as a percentage” value (lipid/DNA 5 w/w) was 0.1% and the “Luciferase expression as a percentage” value (lipid/DNA 10 w/w) was 0.1%. For the same molecule, the “Luciferase expression as a percentage” value (lipid/DNA 15 w/w) was 0.1%, the “Luciferase expression as a percentage” value (lipid/DNA 20 w/w) was 0.1% and the “Luciferase expression as a percentage” value (lipid/DNA 25 w/w) was 0.1%.

In the case of `CCCCCCCCCCOC(=O)CCN(CCCN(C)C)CCC(=O)OCCCCCCCCCC` [LB80], the “Luciferase expression as a percentage” value (lipid/DNA 2.5 w/w) was 0.7%, the “Luciferase expression as a percentage” value (lipid/DNA 5 w/w) was 0.8% and the “Luciferase expression as a percentage” value (lipid/DNA 10 w/w) was 0.1%. The “Luciferase expression as a percentage” value (lipid/DNA 15 w/w) was 0.2%, the “Luciferase expression as a percentage” value (lipid/DNA 20 w/w) was 1.0% and the “Luciferase expression as a percentage” value (lipid/DNA 25 w/w) was 1.5%.

For `CCCCCCCCCCOC(=O)CCN(CCCN(CC)CC)CCC(=O)OCCCCCCCCCC` [LB81], the “Luciferase expression as a percentage” value (lipid/DNA 2.5 w/w) was 0.4%, the “Luciferase expression as a percentage” value (lipid/DNA 5 w/w) was 0.4% and the “Luciferase expression as a percentage” value (lipid/DNA 10 w/w) was 0.2%. For the same molecule, the “Luciferase expression as a percentage” value (lipid/DNA 15 w/w) was 0.3%, the “Luciferase expression as a percentage” value (lipid/DNA 20 w/w) was 0.4% and the “Luciferase expression as a percentage” value (lipid/DNA 25 w/w) was 0.5%.

`CCCCCCCCCCCCOC(=O)CCN(CCCCO)CCC(=O)OCCCCCCCCCCCC` [LD28] was tested, and the “Luciferase expression as a percentage” value (lipid/DNA 10 w/w) was 1.7% and the “Luciferase expression as a percentage” value (lipid/DNA 15 w/w) was 8.5%.

With `CCCCCCCCCCCCOC(=O)CCN(CCN(CCC(=O)OCCCCCCCCCCCC)C(C)C)C(C)C` [LD62] the “Luciferase expression as a percentage” value (lipid/DNA 2.5 w/w) was 0.4%, the “Luciferase expression as a percentage” value (lipid/DNA 5 w/w) was 0.4% and the “Luciferase expression as a percentage” value (lipid/DNA 10 w/w) was 0.4%. The “Luciferase expression as a percentage” value (lipid/DNA 15 w/w) was 0.4%, the “Luciferase expression as a percentage” value (lipid/DNA 20 w/w) was 0.4% and the “Luciferase expression as a percentage” value (lipid/DNA 25 w/w) was 0.5%.

`CCCCCCCCCCCCOC(=O)CCN(C)CCCN(C)CCC(=O)OCCCCCCCCCCCC` [LD63] was tested, and the “Luciferase expression as a percentage” value (lipid/DNA 2.5 w/w) was 0.7%, the “Luciferase expression as a percentage” value (lipid/DNA 5 w/w) was 0.8% and the “Luciferase expression as a percentage” value (lipid/DNA 10 w/w) was 0.3%. For the same molecule, the “Luciferase expression as a percentage” value (lipid/DNA 15 w/w) was 0.3%, the “Luciferase expression as a percentage” value (lipid/DNA 20 w/w) was 0.4% and the “Luciferase expression as a percentage” value (lipid/DNA 25 w/w) was 0.6%.

For `CCCCCCCCCCCCOC(=O)CCN1CCCN(CCC(=O)OCCCCCCCCCCCC)CC1` [LD70], the “Luciferase expression as a percentage” value (lipid/DNA 2.5 w/w) was 0.1%, the “Luciferase expression as a percentage” value (lipid/DNA 5 w/w) was 0.1% and the “Luciferase expression as a percentage” value (lipid/DNA 10 w/w) was 0.6%. For the same molecule, the “Luciferase expression as a percentage” value (lipid/DNA 15 w/w) was 0.6%, the “Luciferase expression as a percentage” value (lipid/DNA 20 w/w) was 0.6% and the “Luciferase expression as a percentage” value (lipid/DNA 25 w/w) was 0.6%.

`CCCCCCCCCCCCOC(=O)CCN(CCC(=O)OCCCCCCCCCCCC)CCN(CC)CC` [LD75] was tested, and the “Luciferase expression as a percentage” value (lipid/DNA 2.5 w/w) was 0.1%, the “Luciferase expression as a percentage” value (lipid/DNA 5 w/w) was 0.1% and the “Luciferase expression as a percentage” value (lipid/DNA 10 w/w) was 0.1%. The “Luciferase expression as a percentage” value (lipid/DNA 15 w/w) was 0.2%, the “Luciferase expression as a percentage” value (lipid/DNA 20 w/w) was 0.2% and the “Luciferase expression as a percentage” value (lipid/DNA 25 w/w) was 0.2%.

`CCCCCCCCCCCCOC(=O)CCN(CCC(=O)OCCCCCCCCCCCC)CCN1CCCC1` [LD76] was tested, and the “Luciferase expression as a percentage” value (lipid/DNA 2.5 w/w) was 0.1%, the “Luciferase expression as a percentage” value (lipid/DNA 5 w/w) was 0.1% and the “Luciferase expression as a percentage” value (lipid/DNA 10 w/w) was 0.2%. For the same molecule, the “Luciferase expression as a percentage” value (lipid/DNA 15 w/w) was 0.3%, the “Luciferase expression as a percentage” value (lipid/DNA 20 w/w) was 0.2% and the “Luciferase expression as a percentage” value (lipid/DNA 25 w/w) was 0.4%.

`CCCCCCCCCCCCOC(=O)CCN(CCC(=O)OCCCCCCCCCCCC)CCC1CCCN1C` (centres unmarked) [LD77] was tested, and the “Luciferase expression as a percentage” value (lipid/DNA 2.5 w/w) was 0.1%, the “Luciferase expression as a percentage” value (lipid/DNA 5 w/w) was 0.1% and the “Luciferase expression as a percentage” value (lipid/DNA 10 w/w) was 6.9%. The “Luciferase expression as a percentage” value (lipid/DNA 15 w/w) was 11.1%, the “Luciferase expression as a percentage” value (lipid/DNA 20 w/w) was 6.4% and the “Luciferase expression as a percentage” value (lipid/DNA 25 w/w) was 2.9%.

In the case of `CCCCCCCCCCCCOC(=O)CCN(CCC(=O)OCCCCCCCCCCCC)C(C)CN(C)C` (centres unmarked) [LD79], the “Luciferase expression as a percentage” value (lipid/DNA 2.5 w/w) was 0.1%, the “Luciferase expression as a percentage” value (lipid/DNA 5 w/w) was 0.1% and the “Luciferase expression as a percentage” value (lipid/DNA 10 w/w) was 0.1%. For the same molecule, the “Luciferase expression as a percentage” value (lipid/DNA 15 w/w) was 0.2%, the “Luciferase expression as a percentage” value (lipid/DNA 20 w/w) was 0.3% and the “Luciferase expression as a percentage” value (lipid/DNA 25 w/w) was 0.2%.

In the case of `CCCCCCCCCCCCOC(=O)CCN(CCCN(C)C)CCC(=O)OCCCCCCCCCCCC` [LD80], the “Luciferase expression as a percentage” value (lipid/DNA 2.5 w/w) was 0.1%, the “Luciferase expression as a percentage” value (lipid/DNA 5 w/w) was 0.1% and the “Luciferase expression as a percentage” value (lipid/DNA 10 w/w) was 3.7%. The “Luciferase expression as a percentage” value (lipid/DNA 15 w/w) was 6.5%, the “Luciferase expression as a percentage” value (lipid/DNA 20 w/w) was 7.1% and the “Luciferase expression as a percentage” value (lipid/DNA 25 w/w) was 2.1%.

For `CCCCCCCCCCCCOC(=O)CCN(CCCN(CC)CC)CCC(=O)OCCCCCCCCCCCC` [LD81], the “Luciferase expression as a percentage” value (lipid/DNA 2.5 w/w) was 0.1%, the “Luciferase expression as a percentage” value (lipid/DNA 5 w/w) was 0.1% and the “Luciferase expression as a percentage” value (lipid/DNA 10 w/w) was 15.2%. The “Luciferase expression as a percentage” value (lipid/DNA 15 w/w) was 7.6%, the “Luciferase expression as a percentage” value (lipid/DNA 20 w/w) was 5.4% and the “Luciferase expression as a percentage” value (lipid/DNA 25 w/w) was 2.3%.

With `CCCCCCCCCCCCOC(=O)CCN(CCC(=O)OCCCCCCCCCCCC)CCN1CCCCC1` [LD82] the “Luciferase expression as a percentage” value (lipid/DNA 2.5 w/w) was 0.1%, the “Luciferase expression as a percentage” value (lipid/DNA 5 w/w) was 0.1% and the “Luciferase expression as a percentage” value (lipid/DNA 10 w/w) was 0.2%. For the same molecule, the “Luciferase expression as a percentage” value (lipid/DNA 15 w/w) was 0.3%, the “Luciferase expression as a percentage” value (lipid/DNA 20 w/w) was 0.4% and the “Luciferase expression as a percentage” value (lipid/DNA 25 w/w) was 0.7%.
